Patent US20240181000A1, “LGG-DERIVED PEPTIDES AND METHODS OF USE THEREOF” (Ohio State Innovation Foundation, priority 2021, published 2024)
No end group written: not given here.

Key:
[1] = tested on: APEC O78; assay type: cell-based, E. coli
Method: Anti-APEC activity determination: The anti-APEC activity of peptides was determined in LB broth following CLSI guidelines. Briefly, overnight grown APEC O78 was adjusted to 5×10^5 CFU/mL concentration in fresh LB media. One-hundred microliters of APEC suspension was aliquoted into the wells of the 96-well plate. Peptides were added to the wells at 6 mM and 12 mM concentrations and incubated at 37° C. in TECAN Sunrise™ absorbance microplate reader with kinetic absorbance measurement set at every 30 mins for 12 h. Sterile media and DMSO (solvent) were used as controls. The growth inhibitory activity of the peptides against APEC was calculated using the formula: (OD600 DMSO treated well−OD600 peptide treated well)/OD600 DMSO treated well×100%.
The minimum inhibitory concentration (MIC) was determined for selected peptides (P1, P2, P3, and P4) using similar assay as above. Peptides were added to the wells of the 96-well plate at 6 mM, 9 mM, 12 mM, 15 mM, and 18 mM concentrations. The peptide concentration at which there is no visible APEC growth (no OD increase) was determined as MIC. Two independent experiments were conducted.
Arginine and lysine substituted peptide analogues: The non-essential amino acid residues identified in each peptide were substituted with arginine/lysine to test whether these substitutions enhance the anti-APEC activity of peptides. The MICs of arginine and lysine substituted peptide analogues ([…] (SEQ ID NO:37), […] (SEQ ID NO:38), […] (SEQ ID NO:39), KDENK (SEQ ID NO:41), PDEKK (SEQ ID NO:42), KDEKK (SEQ ID NO:43), KHTAPK (SEQ ID NO:45), VKTAPK (SEQ ID NO:46), VHTKPK (SEQ ID NO:47), and KKTKPK (SEQ ID NO:48)) were determined as above and compared with original peptides.

[2] = tested on: APEC; experiment: Kinetic time-inhibition assay of synthesized peptides; assay type: cell-based, E. coli; conditions: 12 mM, 12 h
Method: Peptides were added to the APEC suspension in a 96-well plate, and plate was incubated in TECAN Sunrise™ absorbance microplate reader at 37° C. with OD600 measurement set at every 30 min for 12 hr. The sequences in FIG. 7 are […] (SEQ ID NO: 5), […] (SEQ ID NO: 18), […] (SEQ ID NO: 21), […] (SEQ ID NO: 26), and […] (SEQ ID NO: 32).
The five common highly abundant peptides in CFSs of both L. rhamnosus GG and B. lactis Bb12 ([…] (SEQ ID NO:5), […] (SEQ ID NO:18), […] (SEQ ID NO:21), […] (SEQ ID NO:26) and […] (SEQ ID NO:32)) were synthesized (GenScript, NJ, USA) and tested for anti-APEC activity by conducting kinetic time-inhibition assay as described previously. Briefly, peptides dissolved in dimethyl sulfoxide (DMSO) at 200 mM concentrations were added (12 mM; final concentration of 6% DMSO) to APEC suspension (10^5 CFU/mL; LB media) in a 96-well plate. The plate was then incubated in TECAN Sunrise™ absorbance microplate reader (NC, USA) at 37° C. with OD600 measurement set at every 30 mins for 12 h. Untreated APEC (0% DMSO) and APEC treated with 6% DMSO were included as controls. […] Three independent experiments were conducted.

[3] = tested on: Salmonella enterica subsp. enterica serovar Enteritidis (SE); assay type: cell-based; conditions: subsp. enterica serovar Enteritidis (SE)
Method: MIC was determined by selecting peptide concentration at which there is no increased growth (no increase in OD), given indication of no ST growth. An independent repeat experiment was conducted.
Heat and protease tolerance of peptides: P1, P2, and P4 were heated for 6 minutes at 86° C. or treated with protease proteinase K, 200 μg/mL at 50° C. for 30 minutes. After which, the treated and/or heated peptides at their respective MICs were evaluated in the inhibition assay with Salmonella. The protocol from above was repeated in the Tecan with the same controls.
To analyze the perceived efficacy of arginine and lysine substitutes reported in previous studies, specific amino acid residues in P1 and P2 were replaced with lysine or arginine to test if the alliterations enhanced anti-Salmonella (ST and SE) activity. The MICs of the arginine or lysine substituted peptides ([…] (SEQ ID NO:37), […] (SEQ ID NO:38), […] (SEQ ID NO:39), KDENK (SEQ ID NO:41), PDEKK (SEQ ID NO:42), KDEKK (SEQ ID NO:43), KHTAPK (SEQ ID NO:45)) were determined as described early. Two independent experiments were conducted to ensure accuracy.

[4] = tested on: APEC O78; assay type: cell-based, E. coli; conditions: 12 h
Method: FIGS. 13A-13C show the growth pattern of APEC O78 with and without peptide at 3-21 mM concentration. […] Various concentrations of peptides were added to the APEC suspension (5×10^5 CFU/mL) in a 96-well plate. The plate was incubated in a TECAN Sunrise™ absorbance microplate reader at 37° C., measuring the OD 600 set at every 30 mins for 12 hrs. After 12 hrs. incubation the bacteria were serially diluted and plated to count CFU/mL and calculated the inhibitory percentage using (Control-treated)/treated*100.
FIGS. 14A-14B show the growth pattern of APEC O78, treated with a combination of peptides at 3-21 mM concentration with respect to no peptide control. […] The two peptides were added together to the APEC suspension (5×10^5 CFU/mL) in a 96-well plate. The plate was incubated at 37° C. in a TECAN Sunrise™ absorbance microplate reader, measuring the OD 600 set at every 30 mins for 12 hrs. After incubation, the bacteria were serially diluted and plated to measure CFU/mL and calculate the inhibitory percentage using (Control-treated)/treated*100.

[5] = tested on: various probiotic strains; assay type: cell-based; conditions: at MIC (PN3 12 mM, PN5 15 mM)
Method: FIGS. 16A-16B show the effect of the peptide on the growth of various probiotic strains after treating at their minimal inhibitory concentrations of 12 and 15 mM of PN3 and PN5, respectively. […] FIG. 16B the effect of 15 mM of PN5 peptide. The bacteria (5×10^5 CFU/mL) were treated with peptides and grown at 37° C. for 24 hrs in an anaerobic condition except for E. coli Nissel 1917 and E. coli G58-1, which has grown in aerobic conditions for 12 hrs. After incubation, serially dilute the culture and counted the CFU/mL Bacterial inhibition percentage was calculated by comparing with no peptide treated control.

[6] = tested on: APEC O78; experiment: Resistance after 13 passages at 0.75×MIC; assay type: cell-based, E. coli
Method: FIGS. 18A-18B show the growth of APEC O78 at MIC of the peptides after growing the bacteria for 13 passages with a sublethal concentration (0.75×MIC) of peptides. […] The OD 600 was measured at every 30 mins for 12 hrs.

[7] = tested on: Biofilm-embedded APEC; experiment: Effect of PN peptides on biofilm embedded APEC; assay type: cell-based, E. coli; conditions: untreated 7.71 ± 0.72
[8] = tested on: Intracellular APEC; experiment: Effect of PN peptides on intracellular APEC; assay type: cell-based, E. coli
[9] = tested on: ST; experiment: Minimal bactericidal concentration of PN-3 and PN-5; assay type: cell-based, Salmonella enterica
Method: FIGS. 30A-30C show the growth pattern of ST with and without peptide at 9-21 mM concentration. […] The plate was incubated in a TECAN Sunrise™ absorbance microplate reader at 37° C., measuring the OD 600 set at every 30 mins for 12 hrs., followed by bacterial enrichment to determine the minimal bactericidal concentration log CFU/mL.

[10] = tested on: various serovars of Salmonella; experiment: PN3 and PN5 on various serovars of Salmonella; assay type: cell-based; conditions: at MBC, 12 hrs
Method: Salmonella serovars (5×10^5 CFU/mL) were treated with peptides and grown at 37° C. for 12 hrs. In addition, bacterial inhibition percentage was calculated by comparing with no peptide control. […] Red: Bactericidal, Green: Non bactericidal.
FIGS. 32A-32B show the growth inhibition percentage of various serovars of Salmonella after treating with minimal inhibitory concentrations of peptides. […] Salmonella serovars (5×10^5 CFU/mL) were treated with peptides and grown at 37° C. for 12 hrs. In addition, bacterial inhibition percentage was calculated by comparing with no peptide control.

[11] = tested on: multiple APEC serotypes; assay type: cell-based, E. coli
Method: Anti-APEC spectrum determination: Peptides (P1, P2, and P3) were tested against multiple APEC serotypes/strains to determine their spectrum of activity. Peptides were added at their MICs and the growth inhibitory activity of the peptides was determined as described above.

VKTAPK [VKTAPK]
MIC [1]: >18 mM

NPSRRERR
MIC [1]: 15 mM

FSAVALSAVALSKPGHVNA [PN-1]
Inhibition of APEC growth [2]: did not affect the APEC growth

NPRRQERR
MIC [1]: 12 mM

NPRRQRRR
MIC against SE [3]: >18 mM

VQAAQAGDTKPIEV [PN-3]
Inhibition of APEC growth [2]: completely inhibitory | Minimal inhibitory concentration [4]: 12 mM | Growth of B. longum, B. adolescentis, and B. theoiotamicron [5]: promoted the growth | Growth of BB12, E. coli Nissel 1917 and E. coli G58-1 [5]: inhibited the growth | Growth of LGG [5]: unaffected | Bacterial resistance against the peptides [6]: did not cause bacterial resistance | Biofilm-embedded APEC [7]: 4.21 ± 0.48 Log CFU/mL | Intracellular APEC ([8]; 0.25 X, untreated 2.98 ± 0.87): 2.64 ± 0.23 Log CFU/mL | Intracellular APEC ([8]; 0.75 X): 2.59 ± 0.30 Log CFU/mL | Intracellular APEC ([8]; 1 X): 2.50 ± 0.17 Log CFU/mL | Intracellular APEC ([8]; 1.5 X): 0.00 ± 0.00 Log CFU/mL | Minimal bactericidal concentration [9]: 21 mM | Bactericidal effect on eight Salmonella serotypes [10]: kill all the eight serotypes of Salmonella with no viable colony

VHTKPK [VHTKPK]
MIC [1]: >18 mM

KKTKPK [KKTKPK]
MIC [1]: >18 mM

KHTAPK [KHTAPK]
MIC [1]: >18 mM

KDENK [KDENK]
MIC [1]: 9 mM

VHTAPK [Peptide P3, VHTAPK]
MIC [1]: 18 mM | MIC50 [1]: 16.2 mM | Growth inhibition against APEC serotypes [11]: 39.4-88.4%

PDEKK [PDEKK]
MIC [1]: 9 mM | MIC against SE [3]: 12 mM

VTDTSGKAGTTKISNV [PN-5]
Inhibition of APEC growth [2]: completely inhibitory | Minimal inhibitory concentration [4]: 15 mM | Growth of B. longum, B. adolescentis, and B. theoiotamicron [5]: promoted the growth | Growth of BB12, E. coli Nissel 1917 and E. coli G58-1 [5]: inhibited the growth | Growth of LGG [5]: slightly affected | Bacterial resistance against the peptides [6]: did not cause bacterial resistance | Biofilm-embedded APEC [7]: 4.95 ± 0.07 Log CFU/mL | Intracellular APEC ([8]; 0.25 X, untreated 2.98 ± 0.87): 2.34 ± 0.11 Log CFU/mL | Intracellular APEC ([8]; 0.75 X): 2.30 ± 0.00 Log CFU/mL | Intracellular APEC ([8]; 1 X): 0.00 ± 0.00 Log CFU/mL | Intracellular APEC ([8]; 1.5 X): 0.00 ± 0.00 Log CFU/mL | Minimal bactericidal concentration [9]: 21 mM | Bactericidal effect on eight Salmonella serotypes [10]: killed all serotypes except Saintpaul

NPRRRERR
MIC [1]: 12 mM

KDEKK [KDEKK]
MIC [1]: 12 mM

AESSDTNLVNAKAA [PN-2]
Inhibition of APEC growth [2]: slightly inhibitory

AFDNTDTSLDSTFKSA [PN-4]
Inhibition of APEC growth [2]: completely inhibitory
